Assay results reported in US6339045B1, “N-(unsubstituted or substituted)-4-substituted-6-(unsubstituted or substituted)phenoxy-2-pyridinecarboxamides or thiocarboxamides, processes for producing the same, and herbicides” (Kureha Kagaku Kogyo Kabushiki Kaisha, priority 1995, dated 2002).

Legend:
Test in all cases: Herbicidal effect by foliage and soil treatment
Assay type in all cases: in vivo
Details in all cases: 10 g ai/10a, evaluated after 14 days
[1] = tested on: black nightshade (Solanum nigrum)
Outline: (§1)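 Seedlings grown in granular soil in a 19–25 °C greenhouse to the cotyledon–two-leaf stage were sprayed over foliage and soil with compound in Tween 20/water at a set application rate. Growth was scored on a rating scale against untreated plants after 14 days.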

[2] = tested on: cleavers (Galium aparine)
Outline: as §1

[3] = tested on: common blackjack (Bidens pilosa)
Outline: as §1

[4] = tested on: common chickweed (Stellaria media)
Outline: as §1

[5] = tested on: field bindweed (Convolvulus arvensis)
Outline: as §1

[6] = tested on: ivyleafspeedwell (Veronica hederaefolia)
Outline: as §1

[7] = tested on: kediock (Sinapis arvensis)
Outline: as §1

[8] = tested on: redroot pigweed (Amaranthus retroflexus)
Outline: as §1

[9] = tested on: sicklepod (Cassia obtusifolia)
Outline: as §1

[10] = tested on: velvetleaf (Abutilon theophrasti)
Outline: as §1

[11] = tested on: wild chamomile (Matricaria chamomilla)
Outline: as §1

CNN(C)C(=O)c1cc(OC)cc(Oc2cccc(C(F)(F)F)c2)n1 [Compound I-202, N-methyl-N-methylamino-4-methoxy-6-{3-(trifluoromethyl)phenoxy}-2-pyridine carboxamide]
herbicidal activity rating, SN (Solanum nigrum) [1]: 5 (percentage of weeds killed was not less than 80%)
herbicidal activity rating, GA (Galium aparine) [2]: 5 (percentage of weeds killed was not less than 80%)
herbicidal activity rating, BP (Bidens pilosa) [3]: 4 (percentage of weeds killed was not less than 60% and less than 80%)
herbicidal activity rating, SM (Stellaria media) [4]: 5 (percentage of weeds killed was not less than 80%)
herbicidal activity rating, CA (Convolvulus arvensis) [5]: 4 (percentage of weeds killed was not less than 60% and less than 80%)
herbicidal activity rating, VH (Veronica hederaefolia) [6]: 5 (percentage of weeds killed was not less than 80%)
herbicidal activity rating, SA (Sinapis arvensis) [7]: 5 (percentage of weeds killed was not less than 80%)
herbicidal activity rating, AR (Amaranthus retroflexus) [8]: 5 (percentage of weeds killed was not less than 80%)
herbicidal activity rating, CO (Cassia obtusifolia) [9]: 5 (percentage of weeds killed was not less than 80%)
herbicidal activity rating, AT (Abutilon theophrasti) [10]: 4 (percentage of weeds killed was not less than 60% and less than 80%)
herbicidal activity rating, MC (Matricaria chamomilla) [11]: 3 (percentage of weeds killed was not less than 40% and less than 60%)

COc1cc(Oc2cccc(C(F)(F)F)c2)nc(C(=O)N(C)OC)c1 [Compound I-203]
herbicidal activity rating, SN (Solanum nigrum) [1]: 5 (percentage of weeds killed was not less than 80%)
herbicidal activity rating, GA (Galium aparine) [2]: 5 (percentage of weeds killed was not less than 80%)
herbicidal activity rating, BP (Bidens pilosa) [3]: 3 (percentage of weeds killed was not less than 40% and less than 60%)
herbicidal activity rating, SM (Stellaria media) [4]: 4 (percentage of weeds killed was not less than 60% and less than 80%)
herbicidal activity rating, CA (Convolvulus arvensis) [5]: 4 (percentage of weeds killed was not less than 60% and less than 80%)
herbicidal activity rating, VH (Veronica hederaefolia) [6]: 5 (percentage of weeds killed was not less than 80%)
herbicidal activity rating, SA (Sinapis arvensis) [7]: 5 (percentage of weeds killed was not less than 80%)
herbicidal activity rating, AR (Amaranthus retroflexus) [8]: 5 (percentage of weeds killed was not less than 80%)
herbicidal activity rating, CO (Cassia obtusifolia) [9]: 5 (percentage of weeds killed was not less than 80%)
herbicidal activity rating, AT (Abutilon theophrasti) [10]: 4 (percentage of weeds killed was not less than 60% and less than 80%)
herbicidal activity rating, MC (Matricaria chamomilla) [11]: 2 (percentage of weeds killed was not less than 20% and less than 40%)

COc1cc(Oc2cccc(C(F)(F)F)c2)nc(C(=O)N2CC2C)c1 (centres unmarked) [Compound I-300, 4-methoxy-2-{N-(2-methylaziridinyl)carbonyl}-6-{3-(trifluoromethyl)phenoxy}-2-pyridine]
herbicidal activity rating, SN (Solanum nigrum) [1]: 5 (percentage of weeds killed was not less than 80%)
herbicidal activity rating, GA (Galium aparine) [2]: 5 (percentage of weeds killed was not less than 80%)
herbicidal activity rating, BP (Bidens pilosa) [3]: 5 (percentage of weeds killed was not less than 80%)
herbicidal activity rating, SM (Stellaria media) [4]: 5 (percentage of weeds killed was not less than 80%)
herbicidal activity rating, CA (Convolvulus arvensis) [5]: 4 (percentage of weeds killed was not less than 60% and less than 80%)
herbicidal activity rating, VH (Veronica hederaefolia) [6]: 5 (percentage of weeds killed was not less than 80%)
herbicidal activity rating, SA (Sinapis arvensis) [7]: 5 (percentage of weeds killed was not less than 80%)
herbicidal activity rating, AR (Amaranthus retroflexus) [8]: 5 (percentage of weeds killed was not less than 80%)
herbicidal activity rating, CO (Cassia obtusifolia) [9]: 5 (percentage of weeds killed was not less than 80%)
herbicidal activity rating, AT (Abutilon theophrasti) [10]: 4 (percentage of weeds killed was not less than 60% and less than 80%)
herbicidal activity rating, MC (Matricaria chamomilla) [11]: 2 (percentage of weeds killed was not less than 20% and less than 40%)

COc1cc(Oc2cccc(C(F)(F)F)c2)nc(C(=O)N2CCCC2)c1 [Compound I-302, 4-methoxy-2-{N-(pyrrolidinyl)carbonyl}-6-{3-(trifluoromethyl)phenoxy}pyridine]
herbicidal activity rating, SN (Solanum nigrum) [1]: 5 (percentage of weeds killed was not less than 80%)
herbicidal activity rating, GA (Galium aparine) [2]: 5 (percentage of weeds killed was not less than 80%)
herbicidal activity rating, BP (Bidens pilosa) [3]: 2 (percentage of weeds killed was not less than 20% and less than 40%)
herbicidal activity rating, SM (Stellaria media) [4]: 5 (percentage of weeds killed was not less than 80%)
herbicidal activity rating, CA (Convolvulus arvensis) [5]: 4 (percentage of weeds killed was not less than 60% and less than 80%)
herbicidal activity rating, VH (Veronica hederaefolia) [6]: 5 (percentage of weeds killed was not less than 80%)
herbicidal activity rating, SA (Sinapis arvensis) [7]: 5 (percentage of weeds killed was not less than 80%)
herbicidal activity rating, AR (Amaranthus retroflexus) [8]: 5 (percentage of weeds killed was not less than 80%)
herbicidal activity rating, CO (Cassia obtusifolia) [9]: 5 (percentage of weeds killed was not less than 80%)
herbicidal activity rating, AT (Abutilon theophrasti) [10]: 4 (percentage of weeds killed was not less than 60% and less than 80%)
herbicidal activity rating, MC (Matricaria chamomilla) [11]: 4 (percentage of weeds killed was not less than 60% and less than 80%)
